These results are taken from patent publication US4533665A, “[[Bis(aryl)methylene]-1-piperidinyl]alkyl-pyrimidinones” (Janssen Pharmaceutica, priority 1984, dated 1985).

SMILES strings stand for the structures. Structures can show the parent of a compound that is named as a salt.

The assay deals with T1, S2-receptor (Rattus norvegicus, UniProt P14842).
T1 construct: Caudal arteries from fasted male rats; from tissue; host or cells: rat caudal artery, helical strips
T1 sequence (P14842 whole entry): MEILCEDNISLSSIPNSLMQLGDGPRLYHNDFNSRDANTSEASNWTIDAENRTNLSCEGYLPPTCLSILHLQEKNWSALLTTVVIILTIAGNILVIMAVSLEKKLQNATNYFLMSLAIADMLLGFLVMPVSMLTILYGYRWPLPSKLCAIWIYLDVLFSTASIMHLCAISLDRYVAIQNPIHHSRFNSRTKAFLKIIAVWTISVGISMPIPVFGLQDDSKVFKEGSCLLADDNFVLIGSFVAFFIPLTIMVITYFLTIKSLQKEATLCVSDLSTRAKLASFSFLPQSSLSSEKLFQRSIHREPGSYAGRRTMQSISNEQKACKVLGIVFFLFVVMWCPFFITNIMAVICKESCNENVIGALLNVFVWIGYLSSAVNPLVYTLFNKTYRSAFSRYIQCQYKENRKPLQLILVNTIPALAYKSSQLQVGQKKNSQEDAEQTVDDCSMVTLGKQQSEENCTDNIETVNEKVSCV
Description: antagonistic activity on the effect of serotonin on the caudal artery of the rat (caudal artery test). The following applies: rat caudal artery strips; serotonin 40 ng/ml; 5 minutes after adding the drug; read-out: ED50 (minimal concentration which reduces the amplitude of the serotonin-induced contraction to at least 50% of its normal value) (converted). Here is the method:
ANTAGONISTIC ACTIVITY ON THE EFFECT OF SEROTONIN ON THE CAUDAL ARTERY OF THE RAT
Caudal arteries from fasted male rats (210-235 g) were used in the test. […] Submaximal contractions of the arterial strips were produced by adding single doses of serotonin (40 ng/ml) to the organ bath for 2 minutes with each time an interval of 10 minutes. The amplitude of the contraction was measured before and 5 minutes after adding the drug. After washing out, the agonist was added again three times in order to see whether the contraction was restored and normalized. […] In this connection the ED50 -values are the minimal concentrations of the concerned drugs which reduce the amplitude of the contraction to at least 50% of its normal value.
For `Cc1ccc(C(=C2CCN(CCc3c(C)nc4scc(C)n4c3=O)CC2)c2ccccc2)cc1` [Compound 129], the IC50 was 0.49 pM. Under `Cc1nc2ccccn2c(=O)c1CCN1CCC(=C(c2ccc(F)cc2)c2cccc(Cl)c2)CC1` [Compound 16] stands 1.29 pM.

In the case of `Cc1nc2n(c(=O)c1CCN1CCC(=C(c3ccccc3)c3ccc(O)cc3)CC1)CCS2` [Compound 73], the IC50 is 5.44 pM. Under `Cc1cc(C)n2c(=O)c(CCN3CCC(=C(c4ccc(F)cc4)c4ccc(F)cc4)CC3)c(C)nc2c1` [Compound 55] stands 2.6 pM. As to `COC1CN(CCc2c(C)nc3sccn3c2=O)CCC1=C(c1ccc(F)cc1)c1ccc(F)cc1` (stereo not drawn) [Compound 63], the IC50 is 2.56 pM. Under `Cc1nc2ccccn2c(=O)c1CCN1CCC(=C(c2ccc(F)cc2)c2cccc(F)c2)CC1` [Compound 36] stands 0.679 pM. The value for `Cc1nc2n(c(=O)c1CCN1CCC(=C(c3ccccc3)c3cccc(C(F)(F)F)c3)CC1)CCS2` [Compound 90] was 1.39 pM; that for `Cc1nc2ccccn2c(=O)c1CCN1CCC(=C(c2ccc(F)cc2)c2ccc(F)cc2)CC1` [Compound 58] was 1.34 pM. The value for `Cc1ccc(C(=C2CCN(CCc3c(C)nc4n(c3=O)CCS4)CC2)c2ccc(F)cc2)cc1` [Compound 47] was 0.673 pM. Regarding `Cc1nc2n(c(=O)c1CCN1CCC(=C(c3ccccc3)c3ccc(F)cc3)CC1)CCCS2` [Compound 115], the IC50 is 2.73 pM.

In the case of `Cc1nc2sccn2c(=O)c1CCN1CCC(=C(c2ccc(F)cc2)c2ccc(Br)cc2)CC1` [Compound 34], the IC50 was 1.04 pM.

With `Cc1nc2ccccn2c(=O)c1CCN1CCC(=C(c2ccc(O)cc2)c2ccc(F)cc2)CC1` [Compound 20], the IC50 is 2.66 pM. Under `Cc1nc2n(c(=O)c1CCN1CCC(=C(c3ccccc3)c3ccccc3)CC1)CCS2` [Compound 107, 6-[2-[4-(diphenylmethylene)-1-piperidinyl]ethyl]-2,3-dihydro-7-methyl-5H-thiazolo[3,2-a]pyrimidin-5-one dihydrochloride] stands 1.08 pM; under `Cc1nc2n(c(=O)c1CCN1CCC(=C(c3ccc(F)cc3)c3ccc(Cl)cc3)CC1)CCS2` [Compound 22], 2.62 pM; under `Cc1cccc(C(=C2CCN(CCc3c(C)nc4scc(C)n4c3=O)CC2)c2ccc(F)cc2)c1` [Compound 122], 0.656 pM. `Cc1nc2n(c(=O)c1CCN1CCC(=C(c3ccc(F)cc3)c3ccc(F)cc3)CC1)CCS2` [Compound 113]: the IC50 was 1.17 pM. On to `Cc1nc2n(c(=O)c1CCN1CCC(=C(c3ccc(Cl)cc3)c3ccc(Cl)cc3)CC1)CCS2` [Compound 110, 6-[2-[4-[bis(4-chlorophenyl)methylene]-1-piperidinyl]ethyl]-2,3-dihydro-7-methyl-5H-thiazolo[3,2-a]pyrimidin-5-one], for which the IC50 was 2.54 pM. With `Cc1nc2n(c(=O)c1CCN1CCC(=C(c3ccc(O)cc3)c3ccc(F)cc3)CC1)CCCC2` [Compound 39], the IC50 is 1.33 pM.

On to `COc1ccc(C(=C2CCN(CCc3c(C)nc4scc(C)n4c3=O)CC2)c2ccc(F)cc2)cc1` [Compound 142, 6-[2-[4-[(4-fluorophenyl)(4-methoxyphenyl)methylene]-1-piperidinyl]ethyl]-3,7-dimethyl-5H-thiazolo[3,2-a]pyrimidin-5-one], for which the IC50 is 1.11 pM.

`Cc1nc2n(c(=O)c1CCN1CCC(=C(c3ccc(F)cc3)c3cccc(C(F)(F)F)c3)CC1)CCCS2` [Compound 120]: the IC50 is 1.03 pM. Under `Cc1nc2n(c(=O)c1CCN1CCC(=C(c3ccc(F)cc3)c3cccc(C(F)(F)F)c3)CC1)CCS2` [Compound 118] stands 2.36 pM; under `Cc1nc2scc(C)n2c(=O)c1CCN1CCC(=C(c2ccccc2)c2ccc(F)cc2)CC1` [Compound 117], less than 1.33 pM; under `COc1ccc(C(=C2CCN(CCc3c(C)nc4ccccn4c3=O)CC2)c2ccc(F)cc2)cc1` [Compound 143, 3-[2-[4-[(4-fluorophenyl)(4-methoxyphenyl)methylene]-1-piperidinyl]ethyl]-2-methyl-4H-pyrido[1,2-a]pyrimidin-4-one dihydrochloride.monohydrate], 1.3 pM. Under `Cc1cccc(C(=C2CCN(CCc3c(C)nc4n(c3=O)CCCS4)CC2)c2ccc(F)cc2)c1` [Compound 123] stands 0.654 pM. The value for `Cc1nc2n(c(=O)c1CCN1CCC(=C(c3ccc(Cl)cc3)c3ccc(Cl)cc3)CC1)CCCC2` [Compound 52] was 1.4 pM. On to `Cc1nc2n(c(=O)c1CCN1CCC(=C(c3ccc(O)cc3)c3ccc(F)cc3)CC1)CCCS2` [Compound 37], for which the IC50 was 2.64 pM. In the case of `Cc1nc2n(c(=O)c1CCN1CCC(=C(c3ccc(F)cc3)c3ccc(F)cc3)CC1)CCCS2` [Compound 29], the IC50 is 0.648 pM. Consider `Cc1nc2scc(C)n2c(=O)c1CCN1CCC(=C(c2ccccc2)c2ccccc2)CC1` [Compound 105, 6-[2-[4-(diphenylmethylene)-1-piperidinyl]ethyl]-3,7-dimethyl-5H-thiazolo[3,2-a]pyrimidin-5-one], for which the IC50 is 0.702 pM. Turning to `Cc1nc2scc(C)n2c(=O)c1CCN1CCC(=C(c2ccc(F)cc2)c2cccc(C(F)(F)F)c2)CC1` [Compound 119], the IC50 was 2.31 pM. The value for `Cc1nc2scc(C)n2c(=O)c1CCN1CCC(=C(c2ccc(O)cc2)c2ccc(F)cc2)CC1` [Compound 23, 6-[2-[4-[(4-fluorophenyl)-(4-hydroxyphenyl)methylene]-1-piperidinyl]ethyl]-3,7-dimethyl-5H-thiazolo[3,2-a]pyrimidin-5-one] was 1.14 pM; that for `Cc1nc2sccn2c(=O)c1CCN1CCC(=C(c2ccccc2)c2ccc(F)cc2)CC1` [Compound 139, 6-[2-[4-[(4-fluorophenyl)phenylmethylene]-1-piperidinyl]ethyl]-7-methyl-5H-thiazolo[3,2-a]pyrimidin-5-one monohydrochloride] was 0.323 pM; that for `Cc1nc2n(c(=O)c1CCN1CCC(=C(c3ccc(F)cc3)c3ccc(Br)cc3)CC1)CCS2` [Compound 44] was 1.04 pM. The value for `Cc1nc2n(c(=O)c1CCN1CCC(=C(c3ccc(F)cc3)c3ccc(Cl)cc3)CC1)CCCC2` [Compound 11] was 2.54 pM; that for `COc1ccc(C(=C2CCN(CCc3c(C)nc4sccn4c3=O)CC2)c2ccc(F)cc2)cc1` [Compound 144, 6-[2-[4-[(4-fluorophenyl)(4-methoxyphenyl)methylene]-1-piperidinyl]ethyl]-7-methyl-5H-thiazolo[3,2-a]pyrimidin-5-one monohydrochloride] was 1.06 pM. The value for `Cc1nc2scc(C)n2c(=O)c1CCN1CCC(=C(c2ccc(F)cc2)c2ccc(Br)cc2)CC1` [Compound 32] was 2.35 pM; that for `Cc1nc2ccc(Cl)cn2c(=O)c1CCN1CCC(=C(c2ccc(F)cc2)c2ccc(F)cc2)CC1` [Compound 51] was 1.4 pM. On to `Cc1nc2ccccn2c(=O)c1CCN1CCC(=C(c2ccccc2)c2cccc(C(F)(F)F)c2)CC1` [Compound 87], for which the IC50 is less than 4.96 pM. Under `Cc1nc2scc(C)n2c(=O)c1CCN1CCC(=C(c2ccc(F)cc2)c2cccc(F)c2)CC1` [Compound 27] stands 0.651 pM.

As for `Cc1cccc(C(=C2CCN(CCc3c(C)nc4sccn4c3=O)CC2)c2ccccc2)c1` [Compound 69], the IC50 was 0.702 pM.

As to `Cc1ccccc1C(=C1CCN(CCc2c(C)nc3scc(C)n3c2=O)CC1)c1ccccc1` [Compound 81], the IC50 was less than 5.32 pM. For `Cc1nc2n(c(=O)c1CCN1CCC(=C(c3ccc(F)cc3)c3cccc(F)c3)CC1)CCS2` [Compound 28], the IC50 was 1.17 pM. Under `Cc1nc2sccn2c(=O)c1CCN1CCC(=C(c2ccc(F)cc2)c2ccc(F)cc2)C(O)C1` (stereo not drawn) [Compound 60] stands 2.63 pM; under `Cc1nc2sccn2c(=O)c1CCN1CCC(=C(c2ccc(O)cc2)c2ccc(F)cc2)CC1` [Compound 24], 0.378 pM. `Cc1ccc(C(=C2CCN(CCc3c(C)nc4n(c3=O)CCS4)CC2)c2ccccc2)cc1` [Compound 130]: the IC50 was 0.175 pM. Consider `Cc1ccn2c(=O)c(CCN3CCC(=C(c4ccc(F)cc4)c4ccc(F)cc4)CC3)c(C)nc2c1` [Compound 59], for which the IC50 is 0.659 pM. The value for `Cc1nc2sccn2c(=O)c1CCN1CCC(=C(c2ccc(Cl)cc2)c2ccc(Cl)cc2)CC1` [Compound 48] was 4.31 pM; that for `Cc1nc2n(c(=O)c1CCN1CCC(=C(c3ccccc3)c3ccc(F)cc3)CC1)CCS2` [Compound 116] was 2.82 pM. `Cc1nc2ccccn2c(=O)c1CCN1CCC(=C(c2ccccc2)c2ccc(O)cc2)CC1` [Compound 78]: the IC50 was 2.88 pM.

`Cc1ccc(C(=C2CCN(CCc3c(C)nc4sccn4c3=O)CC2)c2ccc(F)cc2)cc1` [Compound 49]: the IC50 is 0.676 pM. Turning to `Cc1nc2n(c(=O)c1CCN1CCC(=C(c3ccccc3)c3cccc(C(F)(F)F)c3)CC1)CCCC2` [Compound 86], the IC50 is 0.63 pM.

With `Cc1ccc(C(=C2CCN(CCc3c(C)nc4sccn4c3=O)CC2)c2ccccc2)cc1` [Compound 66], the IC50 is 0.158 pM.
